In test [1] the target is alpha-L-fucosidase (Bos taurus). Description: Compound was tested for inhibitory activity (mixed) against alpha-L-fucosidase from bovine kidney.
Test [2] has the same target. Description: Compound was tested for inhibitory activity (competitive) against alpha-L-fucosidase from bovine kidney.
The target is the same in test [3]. Description: Compound was tested for inhibitory activity against alpha-L-fucosidase from bovine epididymis.

The record followed here is BindingDB's records for doi:10.1016/0960-894X(95)00377-6 (1995).

As a reminder, the Ki is a dissociation constant, usually derived from enzyme kinetics or from competition with a known ligand. Read a high Ki as a looser hold on the target.

Molecules are shown by their SMILES.

As for `CC1OC(SC2CC(O)C(O)OC2CO)C(O)C(O)C1O` [(2S,4S,5S)-2-((3S,5S)-5,6-Dihydroxy-2-hydroxymethyl-tetrahydro-pyran-3-ylsulfanyl)-6-methyl-tetrahydro-pyran-3,4,5-triol], the Ki in test [1] turned out to be 4000 µM. On to `CC(=O)NC1CC(SC2OC(C)C(O)C(O)C2O)C(CO)OC1O` [N-[(3S,5S)-2-Hydroxy-6-hydroxymethyl-5-((2S,4S,5S)-3,4,5-trihydroxy-6-methyl-tetrahydro-pyran-2-ylsulfanyl)-tetrahydro-pyran-3-yl]-acetamide], for which the Ki in test [1] came out at 2400 µM. Take `NCC(O)C(=O)C(=O)C(N)CO` (stereo unspecified) [2,6-Diimino-hexane-1,3,4,5-tetraol]: the figures for the Ki in test [2] and in test [3] were 7 µM and 11 µM, respectively. Regarding `C[C@@H]1O[C@@H](O)[C@@H](O)[C@H](O)[C@@H]1S` [(2R,3S,4S,5S,6S)-5-Mercapto-6-methyl-tetrahydro-pyran-2,3,4-triol], the inhibition constant Ki in test [2] stood at 42 µM; in test [3], 84 µM.
